The values below come from US9611277B2 (Janssen Pharmaceutica NV, priority 2013, dated 2017).

Where two headings read alike, the source gives them in different places.

For one experiment, the target named is human orexin 1 receptor (Homo sapiens, UniProt O43613). The experiment is described as follows: Human orexin 1 receptor radioligand binding. The settings on record: read-out: hOX1 Ki. In short, it runs like this:
(§1)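 Ki values derive from one-site competition IC50s corrected with the radioligand's predetermined Kd, triplicates per run, averaged over 2-20 runs. Cell homogenates (rat or human OX1R) compete against [^3H]-thiazolyl-oxadiazolyl-pyrrolidine methanone in PBS; 10 μM almorexant sets nonspecific binding; scintillation counting after washing.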

The next experiment addresses human orexin 2 receptor (Homo sapiens (Human), UniProt O43614). Briefly: Human orexin 2 receptor radioligand binding. Conditions: read-out: hOX2 Ki. In a few lines:
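Ki derived from one-site competition IC50 using predetermined Kd of [3H]-EMPA, triplicate points, 2-20 runs averaged. Binding done on homogenized HEK293 cells stably expressing human orexin 2 receptor, DMSO ≤0.1%, with 10 μM almorexant defining nonspecific binding; filtered, washed, scintillation counted.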

For the next experiment, the target named is rat orexin 1 receptor (Rattus norvegicus, UniProt P56718). Briefly: Rat orexin 1 receptor radioligand binding. The settings on record: read-out: rOX1 Ki. In short, it runs like this: as §1
[1] abbreviates: human orexin 1 receptor, averages of 2-20 runs.
The mark [2] stands for this setting: human orexin 2 receptor, averages of 2-20 runs.
[3] abbreviates: rat orexin 1 receptor, averages of 2-20 runs.

Chain of human orexin 2 receptor (O43614 whole entry): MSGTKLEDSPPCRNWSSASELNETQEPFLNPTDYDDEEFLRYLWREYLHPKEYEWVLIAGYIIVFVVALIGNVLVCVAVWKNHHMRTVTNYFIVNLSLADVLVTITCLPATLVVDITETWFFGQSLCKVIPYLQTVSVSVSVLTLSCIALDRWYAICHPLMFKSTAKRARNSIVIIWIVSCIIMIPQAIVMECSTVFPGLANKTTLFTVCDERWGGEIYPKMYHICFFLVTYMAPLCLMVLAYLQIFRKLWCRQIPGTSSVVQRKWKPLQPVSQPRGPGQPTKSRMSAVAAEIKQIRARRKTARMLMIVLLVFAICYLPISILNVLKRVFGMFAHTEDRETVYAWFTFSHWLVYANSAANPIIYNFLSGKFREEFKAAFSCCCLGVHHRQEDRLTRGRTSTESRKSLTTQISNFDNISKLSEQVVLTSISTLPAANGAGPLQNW

Regarding `O=C(c1cccc(F)c1-c1ncccn1)N1C[C@H]2C[C@@H](Nc3ccc(C(F)F)cn3)[C@@H]1C2` [Example 174, ((1S,4S,6R)-6-((5-(difluoromethyl)pyridin-2-yl)amino)-2-azabicyclo[2.2.1]heptan-2-yl)(3-fluoro-2-(pyrimidin-2-yl)phenyl)methanone], the Ki at human orexin 1 receptor (setting [1]) was found to be 0.015 µM; on human orexin 2 receptor (setting [2]), 0.23 µM; at rat orexin 1 receptor (setting [3]) it was 0.018 µM.

“(3-fluoro-2-(pyrimidin-2-yl)phenyl)((1S,4R,6R)-6-((5-(trifluoromethyl)pyrazin-2-yl)amino)-2-azabicyclo[2.2.2]octan-2-yl)methanone [Example 80]”: the results for the Ki at human orexin 1 receptor (setting [1]), at human orexin 2 receptor (setting [2]) and at rat orexin 1 receptor (setting [3]) were 0.007 µM, 0.456 µM and 0.009 µM, respectively.

Turning to `O=C(c1c(F)cccc1-n1nccn1)N1CC2CC(Nc3ccc(C(F)(F)F)cn3)C1C2` [Example 146, (2-fluoro-6-(2H-1,2,3-triazol-2-yl)phenyl)((1S,4S,6R)-6-((5-(trifluoromethyl)pyridin-2-yl)amino)-2-azabicyclo[2.2.1]heptan-2-yl)methanone], the Ki on human orexin 1 receptor (setting [1]) was 0.003 µM; at human orexin 2 receptor (setting [2]), 0.15 µM; at rat orexin 1 receptor (setting [3]), 0.006 µM.

For the compound `O=C(c1c(F)cccc1-n1nccn1)N1C[C@H]2C[C@@H](Oc3ccc(Br)cn3)[C@@H]1C2` [Example 109, ((1S,4R,6R)-6-((5-bromopyridin-2-yl)oxy)-2-azabicyclo[2.2.1]heptan-2-yl)(2-fluoro-6-(2H-1,2,3-triazol-2-yl)phenyl)methanone], the Ki was 0.005 µM on human orexin 1 receptor (setting [1]), 0.442 µM at human orexin 2 receptor (setting [2]) and 0.006 µM at rat orexin 1 receptor (setting [3]).

As to `O=C(c1cccc(F)c1-c1ncc(F)cn1)N1C[C@@H]2CC[C@H]1[C@H](Oc1ccc(C(F)(F)F)cn1)C2` [Example 263, (3-fluoro-2-(5-fluoropyrimidin-2-yl)phenyl)((1S,4R,6R)-6-((5-(trifluoromethyl)pyridin-2-yl)oxy)-2-azabicyclo[2.2.2]octan-2-yl)methanone], the Ki at human orexin 1 receptor (setting [1]) is 0.009 µM; at human orexin 2 receptor (setting [2]), 1.1 µM; at rat orexin 1 receptor (setting [3]), 0.011 µM.

Regarding `Cc1ccc(-n2nccn2)c(C(=O)N2C[C@H]3C[C@@H](Nc4ccc(C(F)(F)F)nn4)[C@@H]2C3)n1` [Example 243, (6-methyl-3-(2H-1,2,3-triazol-2-yl)pyridin-2-yl)((1S,4S,6R)-6-((6-(trifluoromethyl)pyridazin-3-yl)amino)-2-azabicyclo[2.2.1]heptan-2-yl)methanone], the Ki at human orexin 1 receptor (setting [1]) was determined as 0.131 µM; on human orexin 2 receptor (setting [2]), 1.8 µM; on rat orexin 1 receptor (setting [3]), 0.112 µM.

As to `O=C(c1ccccc1-n1nccn1)N1C[C@H]2C[C@@H](Nc3ccc(C(F)F)cn3)[C@@H]1C2` [Example 173, (2-(2H-1,2,3-triazol-2-yl)phenyl)((1S,4S,6R)-6-((5-(difluoromethyl)pyridin-2-yl)amino)-2-azabicyclo[2.2.1]heptan-2-yl)methanone], the Ki on human orexin 1 receptor (setting [1]) was determined as 0.033 µM; on human orexin 2 receptor (setting [2]), 0.264 µM; on rat orexin 1 receptor (setting [3]) it was 0.055 µM.

As for `O=C(c1c(F)cccc1-c1ncccn1)N1C[C@H]2C[C@@H](Nc3ccc(C(F)(F)F)cn3)[C@@H]1C2` [Example 147, (2-fluoro-6-(pyrimidin-2-yl)phenyl)((1S,4S,6R)-6-((5-(trifluoromethyl)pyridin-2-yl)amino)-2-azabicyclo[2.2.1]heptan-2-yl)methanone], the Ki on human orexin 1 receptor (setting [1]) is 0.006 µM; at human orexin 2 receptor (setting [2]), 0.19 µM; at rat orexin 1 receptor (setting [3]) it was 0.005 µM.

In the case of `O=C(c1cccc(F)c1-c1ncccn1)N1C[C@H]2C[C@@H](Oc3cc(C(F)(F)F)ccn3)[C@@H]1C2` [Example 95, (3-fluoro-2-(pyrimidin-2-yl)phenyl)((1S,4R,6R)-6-((4-(trifluoromethyl)pyridin-2-yl)oxy)-2-azabicyclo[2.2.1]heptan-2-yl)methanone], the Ki came to 0.037 µM at human orexin 1 receptor (setting [1]), 0.137 µM at human orexin 2 receptor (setting [2]) and 0.029 µM at rat orexin 1 receptor (setting [3]).

As for `O=C(c1cccc(F)c1-c1ncccn1)N1C[C@H]2C[C@@H](Oc3ncc(C(F)(F)F)cc3F)[C@@H]1C2` [Example 100, (3-fluoro-2-(pyrimidin-2-yl)phenyl)((1S,4R,6R)-6-((3-fluoro-5-(trifluoromethyl)pyridin-2-yl)oxy)-2-azabicyclo[2.2.1]heptan-2-yl)methanone], the Ki at human orexin 1 receptor (setting [1]) was found to be 0.012 µM; on human orexin 2 receptor (setting [2]) it was 1.6 µM; at rat orexin 1 receptor (setting [3]), 0.013 µM.

With `O=C(c1ccccc1-n1nccn1)N1C[C@H]2C[C@@H](Oc3ccc(C(F)(F)F)nn3)[C@@H]1C2` [Example 139, (2-(2H-1,2,3-triazol-2-yl)phenyl)((1S,4R,6R)-6-((6-(trifluoromethyl)pyridazin-3-yl)oxy)-2-azabicyclo[2.2.1]heptan-2-yl)methanone], the Ki at human orexin 1 receptor (setting [1]) amounted to 0.15 µM; on human orexin 2 receptor (setting [2]), 3.7 µM; on rat orexin 1 receptor (setting [3]) it was 0.208 µM.

With `O=C(c1ccc(F)cc1-c1ncccn1)N1C[C@H]2C[C@@H](Nc3ccc(Cl)cn3)[C@@H]1C2` [Example 171, ((1S,4S,6R)-6-((5-chloropyridin-2-yl)amino)-2-azabicyclo[2.2.1]heptan-2-yl)(4-fluoro-2-(pyrimidin-2-yl)phenyl)methanone], the values for the inhibition constant (Ki) on human orexin 1 receptor (setting [1]), on human orexin 2 receptor (setting [2]) and on rat orexin 1 receptor (setting [3]) were 0.025 µM, 1.9 µM and 0.027 µM, respectively.

On to `O=C(c1cc(F)ccc1-c1ncco1)N1C[C@H]2C[C@@H](Nc3cnc(C(F)(F)F)cn3)[C@@H]1C2` [Example 202, (5-fluoro-2-(oxazol-2-yl)phenyl)((1S,4S,6R)-6-((5-(trifluoromethyl)pyrazin-2-yl)amino)-2-azabicyclo[2.2.1]heptan-2-yl)methanone], for which the Ki is 0.013 µM on human orexin 1 receptor (setting [1]), 0.302 µM at human orexin 2 receptor (setting [2]) and 0.013 µM on rat orexin 1 receptor (setting [3]).

As to `Cc1noc(-c2cc(F)ccc2C(=O)N2C[C@H]3C[C@@H](Oc4ccc(C(F)(F)F)cn4)[C@@H]2C3)n1` [Example 291, (4-fluoro-2-(3-methyl-1,2,4-oxadiazol-5-yl)phenyl)((1S,4R,6R)-6-((5-(trifluoromethyl)pyridin-2-yl)oxy)-2-azabicyclo[2.2.1]heptan-2-yl)methanone], the results for the Ki at human orexin 1 receptor (setting [1]), at human orexin 2 receptor (setting [2]) and at rat orexin 1 receptor (setting [3]) were 0.082 µM, 4.2 µM and 0.043 µM, respectively.

For `Cc1ccc(-n2nccn2)c(C(=O)N2C[C@H]3C[C@@H](Oc4cnc(C(F)(F)F)cn4)[C@@H]2C3)n1` [Example 125, (6-methyl-3-(2H-1,2,3-triazol-2-yl)pyridin-2-yl)((1S,4R,6R)-6-((5-(trifluoromethyl)pyrazin-2-yl)oxy)-2-azabicyclo[2.2.1]heptan-2-yl)methanone], the Ki worked out at 0.088 µM at human orexin 1 receptor (setting [1]), 5.5 µM on human orexin 2 receptor (setting [2]) and 0.22 µM at rat orexin 1 receptor (setting [3]).

In the case of `CCN(c1ccc(C(F)(F)F)cn1)C1CC2CC1N(C(=O)c1cccc(F)c1-c1ncccn1)C2` (stereo not drawn) [Example 160], the Ki at human orexin 1 receptor (setting [1]) turned out to be 0.006 µM; on human orexin 2 receptor (setting [2]) it was 0.208 µM; at rat orexin 1 receptor (setting [3]), 0.009 µM.

Turning to `O=C(c1cccc(F)c1-c1ncccn1)N1C[C@H]2C[C@@H](Nc3nc4ccccc4o3)[C@@H]1C2` [Example 183, ((1S,4S,6R)-6-(benzo[d]oxazol-2-ylamino)-2-azabicyclo[2.2.1]heptan-2-yl)(3-fluoro-2-(pyrimidin-2-yl)phenyl)methanone], the Ki is 0.007 µM at human orexin 1 receptor (setting [1]), 0.206 µM on human orexin 2 receptor (setting [2]) and 0.005 µM on rat orexin 1 receptor (setting [3]).

Take `O=C(c1occc1-c1ccccc1)N1C[C@H]2C[C@@H](Nc3cnc(C(F)(F)F)cn3)[C@@H]1C2` [Example 207, (3-phenylfuran-2-yl)((1S,4S,6R)-6-((5-(trifluoromethyl)pyrazin-2-yl)amino)-2-azabicyclo[2.2.1]heptan-2-yl)methanone]: the Ki at human orexin 1 receptor (setting [1]) came out at 0.127 µM; on human orexin 2 receptor (setting [2]), 0.611 µM; at rat orexin 1 receptor (setting [3]), 0.143 µM.

In the case of “((1S,4S,6R)-6-((5-chloropyrimidin-2-yl)amino)-2-azabicyclo[2.2.1]heptan-2-yl)(2-(5-fluoropyrimidin-2-yl)phenyl)methanone [Example 241]”, the Ki at human orexin 1 receptor was 0.012 µM; on human orexin 2 receptor, 0.971 µM; at rat orexin 1 receptor it was 0.021 µM.

For the compound `O=C(c1cccc(F)c1-c1ncccn1)N1C[C@H]2C[C@@H](Oc3cnc(C(F)(F)F)cn3)[C@@H]1C2` [Example 126, (3-fluoro-2-(pyrimidin-2-yl)phenyl)((1S,4R,6R)-6-((5-(trifluoromethyl)pyrazin-2-yl)oxy)-2-azabicyclo[2.2.1]heptan-2-yl)methanone], the Ki at human orexin 1 receptor (setting [1]) is 0.022 µM; at human orexin 2 receptor (setting [2]), 4.2 µM; on rat orexin 1 receptor (setting [3]), 0.027 µM.

In the case of `CN(c1cnc(C(F)(F)F)cn1)[C@@H]1C[C@H]2C[C@@H]1N(C(=O)c1cc(F)ccc1-c1ncccn1)C2` [Example 209, (5-fluoro-2-(pyrimidin-2-yl)phenyl)((1S,4S,6R)-6-(methyl(5-(trifluoromethyl)pyrazin-2-yl)amino)-2-azabicyclo[2.2.1]heptan-2-yl)methanone], the Ki on human orexin 1 receptor (setting [1]) came to 0.005 µM; on human orexin 2 receptor (setting [2]), 0.753 µM; at rat orexin 1 receptor (setting [3]) it was 0.009 µM.

Consider `O=C(c1ccccc1-c1ncccn1)N1C[C@H]2C[C@@H](Nc3ccc(C(F)(F)F)cn3)[C@@H]1C2` [Example 148, (2-(pyrimidin-2-yl)phenyl)((1S,4S,6R)-6-((5-(trifluoromethyl)pyridin-2-yl)amino)-2-azabicyclo[2.2.1]heptan-2-yl)methanone], for which the inhibition constant Ki on human orexin 1 receptor (setting [1]) came out at 0.005 µM; at human orexin 2 receptor (setting [2]) it was 0.189 µM; on rat orexin 1 receptor (setting [3]), 0.003 µM.

As usually defined, the Ki is a measure of affinity in units of concentration, obtained from inhibition or displacement.
